The IC50 is the concentration that gives 50% inhibition. Low values mean greater potency in that assay, high ones weaker potency in that assay.

The text below walks through data of ChEMBL document CHEMBL3882726, “Pyrimidine Derivatives As Kinase Modulators and Method of Use” (2008).

For the experiment, the target named is Insulin-like growth factor 1 receptor (Homo sapiens, UniProt P08069). The experiment can be described thus: Inhibition of human IGF1R kinase domain (M954 to C1367 residues) tri-phosphorylated enzyme form expressed in baculovirus based expression system using poly-EY peptide incubated for 2 hrs by luciferase-luciferin coupled chemiluminescent assay.
Sequence of Insulin-like growth factor 1 receptor (P08069 31-736 limits assumed): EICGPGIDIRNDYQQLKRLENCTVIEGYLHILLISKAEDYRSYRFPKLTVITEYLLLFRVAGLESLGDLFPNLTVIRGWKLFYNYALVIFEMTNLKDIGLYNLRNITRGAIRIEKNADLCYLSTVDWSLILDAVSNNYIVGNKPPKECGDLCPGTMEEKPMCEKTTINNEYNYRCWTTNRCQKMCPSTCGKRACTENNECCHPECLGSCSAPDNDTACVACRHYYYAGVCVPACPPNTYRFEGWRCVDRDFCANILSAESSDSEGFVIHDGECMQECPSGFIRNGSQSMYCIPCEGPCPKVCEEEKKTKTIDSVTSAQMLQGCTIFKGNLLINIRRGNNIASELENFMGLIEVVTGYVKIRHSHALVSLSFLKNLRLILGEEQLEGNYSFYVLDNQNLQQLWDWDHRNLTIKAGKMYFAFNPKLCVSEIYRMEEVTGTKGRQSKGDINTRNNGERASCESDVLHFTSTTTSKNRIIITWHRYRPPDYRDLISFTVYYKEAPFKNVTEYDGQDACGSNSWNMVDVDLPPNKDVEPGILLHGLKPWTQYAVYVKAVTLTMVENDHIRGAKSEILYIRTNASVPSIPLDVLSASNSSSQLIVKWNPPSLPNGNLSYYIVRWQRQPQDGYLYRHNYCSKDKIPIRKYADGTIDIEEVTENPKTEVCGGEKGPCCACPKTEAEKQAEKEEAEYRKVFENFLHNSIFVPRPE
Sequence of Insulin-like growth factor 1 receptor (P08069 741-1367 limits assumed): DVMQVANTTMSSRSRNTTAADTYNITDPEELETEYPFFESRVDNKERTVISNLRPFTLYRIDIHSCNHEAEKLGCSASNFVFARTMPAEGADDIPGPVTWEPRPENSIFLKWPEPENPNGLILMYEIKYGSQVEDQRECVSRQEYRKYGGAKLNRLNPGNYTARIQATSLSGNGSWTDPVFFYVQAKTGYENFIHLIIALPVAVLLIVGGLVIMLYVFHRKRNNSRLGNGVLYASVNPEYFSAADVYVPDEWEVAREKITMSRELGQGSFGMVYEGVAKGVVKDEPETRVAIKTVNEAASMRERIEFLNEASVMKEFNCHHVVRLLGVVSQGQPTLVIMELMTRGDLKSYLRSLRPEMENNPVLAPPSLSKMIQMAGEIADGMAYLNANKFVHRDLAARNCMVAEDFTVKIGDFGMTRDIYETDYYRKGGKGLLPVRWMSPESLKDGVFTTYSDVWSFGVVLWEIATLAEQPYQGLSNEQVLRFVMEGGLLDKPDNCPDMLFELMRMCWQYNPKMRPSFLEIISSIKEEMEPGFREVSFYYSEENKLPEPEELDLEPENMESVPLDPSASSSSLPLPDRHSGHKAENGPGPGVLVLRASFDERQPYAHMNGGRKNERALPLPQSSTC

Regarding `COc1cc(Nc2nc(C)cc(Nc3cc(C4CC4)n[nH]3)n2)cc([N+](=O)[O-])c1`, the IC50 was not below 5 µM.
